Laboratory results as given in patent US6914045B2, “Glycopeptide antibiotics” (Wyeth Holdings Corporation, priority 2001, dated 2005).
≈ marks a conversion by molar mass, not a printed value. Blank lines part the entries; values can stand above or below the compound they belong to. Numbered stars: 1 amine (or outer) side, 2 acyl side, 3 side chain; on linkers, the order of the positions; unused ones are H or OH. Square brackets hold non-standard residues; d marks the D form. Peptide text beside a SMILES is read from it. ξ: configuration not given here. X3 = CC1(C)OCC2OC(N3C(=N)NCC3C(O)C(N[*:1])C(=O)[*:2])C3OC(C)(C)OC3C2O1; ξEnduracididine(βξ-OH,4'ξ) = N=C1NCC(C(O)C(N)C(=O)O)N1; ξPhe(βξ-Me) = CC(c1ccccc1)C(N)C(=O)O

Assays:
Assay in all cases: in vitro antibacterial evaluation, MIC by broth dilution
Format in all cases: cell-based
Escherichia coli = details: 18 hours at 35° C.
Enterococcus sp. = details: broth dilution, 18 hours at 35° C.
In short: (§1)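 Broth dilution per NCCLS standard M7-A2 in Muller-Hinton II […], with an inoculum of 5×10^5 CFU/mL and antibiotic spanning 64-0.06 μg/mL. The MIC is the lowest concentration that inhibits growth of the organism.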

Staphylococcus sp. = details: broth dilution, 18 hours at 35° C.
In short: as §1

Streptococcus sp. = details: broth dilution, 18 hours at 35° C.
In short: as §1

MIC Escherichia coli (ATCC 25922) (Escherichia coli): 64 µg/mL (≈ 54.9 µM)
MIC Escherichia coli (GC 4559) (Escherichia coli): 64 µg/mL (≈ 54.9 µM)
MIC Escherichia coli (GC 4560) (Escherichia coli): 8 µg/mL (≈ 6.86 µM)
MIC Enterococcus avium (GC 4558) (Enterococcus sp.): 8 µg/mL (≈ 6.86 µM)
MIC Enterococcus faecalis (ATCC 29212) (Enterococcus sp.): 64 µg/mL (≈ 54.9 µM)
MIC Enterococcus faecalis (GC 2242) (Enterococcus sp.): 64 µg/mL (≈ 54.9 µM)
MIC Enterococcus faecalis (GC 2691) (Enterococcus sp.): 32 µg/mL (≈ 27.5 µM)
MIC Enterococcus faecalis (GC 3059) (Enterococcus sp.): 128 µg/mL (≈ 110 µM)
MIC Enterococcus faecalis (GC 4552) (Enterococcus sp.): 128 µg/mL (≈ 110 µM)
MIC Enterococcus faecalis (GC 4553) (Enterococcus sp.): 16 µg/mL (≈ 13.7 µM)
MIC Enterococcus faecalis (GC 4554) (Enterococcus sp.): 64 µg/mL (≈ 54.9 µM)
MIC Enterococcus faecalis (GC 6189) (Enterococcus sp.): 32 µg/mL (≈ 27.5 µM)
MIC Enterococcus faecium (GC 2243) (Enterococcus sp.): 32 µg/mL (≈ 27.5 µM)
MIC Enterococcus faecium (GC 4556) (Enterococcus sp.): 32 µg/mL (≈ 27.5 µM)
MIC Enterococcus faecium (GC 4557) (Enterococcus sp.): 16 µg/mL (≈ 13.7 µM)
MIC Enterococcus faecalis (ATCC 29212) (Enterococcus sp.; strain ATCC 29212): 64 µg/mL (≈ 54.9 µM)
MIC Enterococcus faecalis (GC 2242) (Enterococcus sp.; strain GC 2242): 64 µg/mL (≈ 54.9 µM)
MIC Enterococcus faecium (GC 2243) (Enterococcus sp.; strain GC 2243): 32 µg/mL (≈ 27.5 µM)
MIC Enterococcus faecalis (GC 2691) (Enterococcus sp.; strain GC 2691): 32 µg/mL (≈ 27.5 µM)
MIC Enterococcus faecalis (GC 3059) (Enterococcus sp.; strain GC 3059): 128 µg/mL (≈ 110 µM)
MIC Enterococcus faecalis (GC 4552) (Enterococcus sp.; strain GC 4552): 128 µg/mL (≈ 110 µM)
MIC Enterococcus faecalis (GC 4553) (Enterococcus sp.; strain GC 4553): 16 µg/mL (≈ 13.7 µM)
MIC Enterococcus faecalis (GC 4554) (Enterococcus sp.; strain GC 4554): 64 µg/mL (≈ 54.9 µM)
MIC Enterococcus faecium (GC 4556) (Enterococcus sp.; strain GC 4556): 32 µg/mL (≈ 27.5 µM)
MIC Enterococcus faecium (GC 4557) (Enterococcus sp.; strain GC 4557): 16 µg/mL (≈ 13.7 µM)
MIC Enterococcus avium (GC 4558) (Enterococcus sp.; strain GC 4558): 8 µg/mL (≈ 6.86 µM)
MIC Enterococcus faecalis (GC 6189) (Enterococcus sp.; strain GC 6189): 32 µg/mL (≈ 27.5 µM)
MIC Coagulase Negative Staphylococcus (GC 4547) (Staphylococcus sp.): 16 µg/mL (≈ 13.7 µM)
MIC Coagulase Negative Staphylococcus (GC 4548) (Staphylococcus sp.): 32 µg/mL (≈ 27.5 µM)
MIC Coagulase Negative Staphylococcus (GC 4549) (Staphylococcus sp.): 32 µg/mL (≈ 27.5 µM)
MIC Coagulase Negative Staphylococcus (GC 4551) (Staphylococcus sp.): 32 µg/mL (≈ 27.5 µM)
MIC Coagulase Negative Staphylococcus (GC 6257) (Staphylococcus sp.): 16 µg/mL (≈ 13.7 µM)
MIC Staphylococcus aureus (ATCC 29213) (Staphylococcus sp.): 32 µg/mL (≈ 27.5 µM)
MIC Staphylococcus aureus (GC 1131) (Staphylococcus sp.): 32 µg/mL (≈ 27.5 µM)
MIC Staphylococcus aureus (GC 3051) (Staphylococcus sp.): 64 µg/mL (≈ 54.9 µM)
MIC Staphylococcus aureus (GC 3053) (Staphylococcus sp.): 64 µg/mL (≈ 54.9 µM)
MIC Staphylococcus aureus (GC 4541) (Staphylococcus sp.): 32 µg/mL (≈ 27.5 µM)
MIC Staphylococcus aureus (GC 4542) (Staphylococcus sp.): 64 µg/mL (≈ 54.9 µM)
MIC Staphylococcus aureus (GC 4544) (Staphylococcus sp.): 32 µg/mL (≈ 27.5 µM)
MIC Staphylococcus aureus (GC 4545) (Staphylococcus sp.): 32 µg/mL (≈ 27.5 µM)
MIC Staphylococcus aureus-SMITH (GC 4543) (Staphylococcus sp.): 32 µg/mL (≈ 27.5 µM)
MIC Staphylococcus aureus (ATCC 29213) (Staphylococcus sp.; strain ATCC 29213): 32 µg/mL (≈ 27.5 µM)
MIC Staphylococcus aureus (GC 1131) (Staphylococcus sp.; strain GC 1131): 32 µg/mL (≈ 27.5 µM)
MIC Staphylococcus aureus (GC 3051) (Staphylococcus sp.; strain GC 3051): 64 µg/mL (≈ 54.9 µM)
MIC Staphylococcus aureus (GC 3053) (Staphylococcus sp.; strain GC 3053): 64 µg/mL (≈ 54.9 µM)
MIC Staphylococcus aureus (GC 4541) (Staphylococcus sp.; strain GC 4541): 32 µg/mL (≈ 27.5 µM)
MIC Staphylococcus aureus (GC 4542) (Staphylococcus sp.; strain GC 4542): 64 µg/mL (≈ 54.9 µM)
MIC Staphylococcus aureus-SMITH (GC 4543) (Staphylococcus sp.; strain GC 4543): 32 µg/mL (≈ 27.5 µM)
MIC Staphylococcus aureus (GC 4544) (Staphylococcus sp.; strain GC 4544): 32 µg/mL (≈ 27.5 µM)
MIC Staphylococcus aureus (GC 4545) (Staphylococcus sp.; strain GC 4545): 32 µg/mL (≈ 27.5 µM)
MIC Coagulase Negative Staphylococcus (GC 4547) (Staphylococcus sp.; strain GC 4547): 16 µg/mL (≈ 13.7 µM)
MIC Coagulase Negative Staphylococcus (GC 4548) (Staphylococcus sp.; strain GC 4548): 32 µg/mL (≈ 27.5 µM)
MIC Coagulase Negative Staphylococcus (GC 4549) (Staphylococcus sp.; strain GC 4549): 32 µg/mL (≈ 27.5 µM)
MIC Coagulase Negative Staphylococcus (GC 4551) (Staphylococcus sp.; strain GC 4551): 32 µg/mL (≈ 27.5 µM)
MIC Coagulase Negative Staphylococcus (GC 6257) (Staphylococcus sp.; strain GC 6257): 16 µg/mL (≈ 13.7 µM)
MIC Streptococcus agalactiae (GC 4564) (Streptococcus sp.): 64 µg/mL (≈ 54.9 µM)
MIC Streptococcus pneumoniae (ATCC 6301) (Streptococcus sp.): 64 µg/mL (≈ 54.9 µM)
MIC Streptococcus pneumoniae (GC 1894) (Streptococcus sp.): 64 µg/mL (≈ 54.9 µM)
MIC Streptococcus pneumoniae (GC 4565) (Streptococcus sp.): 128 µg/mL (≈ 110 µM)
MIC Streptococcus pyogenes (GC 4563) (Streptococcus sp.): 32 µg/mL (≈ 27.5 µM)
MIC Streptococcus pneumoniae (ATCC 6301) (Streptococcus sp.; strain ATCC 6301): 64 µg/mL (≈ 54.9 µM)
MIC Streptococcus pneumoniae (GC 1894) (Streptococcus sp.; strain GC 1894): 64 µg/mL (≈ 54.9 µM)
MIC Streptococcus pyogenes (GC 4563) (Streptococcus sp.; strain GC 4563): 32 µg/mL (≈ 27.5 µM)
MIC Streptococcus agalactiae (GC 4564) (Streptococcus sp.; strain GC 4564): 64 µg/mL (≈ 54.9 µM)
MIC Streptococcus pneumoniae (GC 4565) (Streptococcus sp.; strain GC 4565): 128 µg/mL (≈ 110 µM)
SMILES: CC(c1ccccc1)C1NC(=O)CNC(=O)C(CO[Si](C)(C)C(C)(C)C)NC(=O)C(C(O)C2CNC(=N)N2C2OC3COC(C)(C)OC3C3OC(C)(C)OC32)NC(=O)C(C(O)C2CNC(=N)N2)NC(=O)C(Cc2ccc(O)cc2)NC1=O (stereo not drawn) [Example 248]
MIC Staphylococcus haemolyticus (GC 4546) (Staphylococcus sp.): 16 µg/mL (≈ 13.7 µM)
MIC Staphylococcus haemolyticus (GC 4546) (Staphylococcus sp.; strain GC 4546): 16 µg/mL (≈ 13.7 µM)

MIC Escherichia coli (ATCC 25922) (Escherichia coli): >64 µg/mL
MIC Escherichia coli (GC 4559) (Escherichia coli): >64 µg/mL
MIC Escherichia coli (GC 4560) (Escherichia coli): >64 µg/mL
MIC Enterococcus avium (GC 4558) (Enterococcus sp.): >64 µg/mL
MIC Enterococcus faecalis (ATCC 29212) (Enterococcus sp.): >64 µg/mL
MIC Enterococcus faecalis (GC 2242) (Enterococcus sp.): >64 µg/mL
MIC Enterococcus faecalis (GC 2691) (Enterococcus sp.): >64 µg/mL
MIC Enterococcus faecalis (GC 3059) (Enterococcus sp.): >64 µg/mL
MIC Enterococcus faecalis (GC 4552) (Enterococcus sp.): >64 µg/mL
MIC Enterococcus faecalis (GC 4553) (Enterococcus sp.): >64 µg/mL
MIC Enterococcus faecalis (GC 4554) (Enterococcus sp.): >64 µg/mL
MIC Enterococcus faecalis (GC 6189) (Enterococcus sp.): >64 µg/mL
MIC Enterococcus faecium (GC 2243) (Enterococcus sp.): >64 µg/mL
MIC Enterococcus faecium (GC 4556) (Enterococcus sp.): >64 µg/mL
MIC Enterococcus faecium (GC 4557) (Enterococcus sp.): >64 µg/mL
MIC Coagulase Negative Staphylococcus (GC 4547) (Staphylococcus sp.): >64 µg/mL
MIC Coagulase Negative Staphylococcus (GC 4548) (Staphylococcus sp.): >64 µg/mL
MIC Coagulase Negative Staphylococcus (GC 4549) (Staphylococcus sp.): >64 µg/mL
MIC Coagulase Negative Staphylococcus (GC 4551) (Staphylococcus sp.): >64 µg/mL
MIC Coagulase Negative Staphylococcus (GC 6257) (Staphylococcus sp.): >64 µg/mL
MIC Staphylococcus aureus (ATCC 29213) (Staphylococcus sp.): >64 µg/mL
MIC Staphylococcus aureus (GC 1131) (Staphylococcus sp.): >64 µg/mL
MIC Staphylococcus aureus (GC 3051) (Staphylococcus sp.): >64 µg/mL
MIC Staphylococcus aureus (GC 3053) (Staphylococcus sp.): >64 µg/mL
MIC Staphylococcus aureus (GC 4541) (Staphylococcus sp.): >64 µg/mL
MIC Staphylococcus aureus (GC 4542) (Staphylococcus sp.): >64 µg/mL
MIC Staphylococcus aureus (GC 4544) (Staphylococcus sp.): >64 µg/mL
MIC Staphylococcus aureus (GC 4545) (Staphylococcus sp.): >64 µg/mL
MIC Staphylococcus aureus-SMITH (GC 4543) (Staphylococcus sp.): >64 µg/mL
MIC Streptococcus agalactiae (GC 4564) (Streptococcus sp.): >64 µg/mL
MIC Streptococcus pneumoniae (ATCC 6301) (Streptococcus sp.): >64 µg/mL
MIC Streptococcus pneumoniae (GC 1894) (Streptococcus sp.): >64 µg/mL
MIC Streptococcus pneumoniae (GC 4565) (Streptococcus sp.): >64 µg/mL
MIC Streptococcus pyogenes (GC 4563) (Streptococcus sp.): >64 µg/mL
SMILES: CC(c1ccccc1)C1NC(=O)CNC(=O)C(CO)NC(=O)C(C(O)C2CNC(=N)N2C2OC3COC(C)(C)OC3C3OC(C)(C)OC32)NC(=O)C(C(O)C2CNC(=N)N2)NC(=O)C(Cc2ccc(O)cc2)NC1=O (stereo not drawn) [Example 247] (cyclo(G[ξPhe(βξ-Me)]Y[ξEnduracididine(βξ-OH,4'ξ)][X3]S); configuration not given here)
MIC Staphylococcus haemolyticus (GC 4546) (Staphylococcus sp.): >64 µg/mL
